From PubChem BioAssay (NCI)
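Growth conditions: 96-well plates. Treatment: test compound, 48 hours, 5 concentrations. Analysis: linear interpolation between bracketing concentrations; unreached endpoints set to highest concentration. GI50: concentration for 50% inhibition of growth. Definition used: TGI = concentration required for complete inhibition of growth.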

Assays:
Assay in all cases: DTP human tumour cell line panel, 48 h
NCI/ADR-RES ovarian = tested on: NCI/ADR-RES ovarian
HOP-62 NSCLC = tested on: HOP-62 NSCLC
RXF 393 renal = tested on: RXF 393 renal
SW-620 colon = tested on: SW-620 colon
SNB-19 CNS = tested on: SNB-19 CNS
M14 melanoma = tested on: M14 melanoma
IGROV1 ovarian = tested on: IGROV1 ovarian
HT29 colon = tested on: HT29 colon
HL-60(TB) leukemia = tested on: HL-60(TB) leukemia
U251 CNS = tested on: U251 CNS

SMILES	GI50 (NCI/ADR-RES ovarian) [µM]	TGI (NCI/ADR-RES ovarian) [µM]	GI50 (HOP-62 NSCLC) [µM]	TGI (HOP-62 NSCLC) [µM]	GI50 (RXF 393 renal) [µM]	TGI (RXF 393 renal) [µM]	GI50 (SW-620 colon) [µM]	TGI (SW-620 colon) [µM]	GI50 (SNB-19 CNS) [µM]	TGI (SNB-19 CNS) [µM]	GI50 (M14 melanoma) [µM]	TGI (M14 melanoma) [µM]	GI50 (IGROV1 ovarian) [µM]	TGI (IGROV1 ovarian) [µM]	GI50 (HT29 colon) [µM]	TGI (HT29 colon) [µM]	GI50 (HL-60(TB) leukemia) [µM]	TGI (HL-60(TB) leukemia) [µM]	GI50 (U251 CNS) [µM]	TGI (U251 CNS) [µM]
CC[CH2][Pb]([CH2]CC)([CH2]CC)[O]C(=O)C(F)(F)F	0.298	1.06	0.176	0.404	0.0724	0.277	0.0786	0.253	0.206	0.81	0.0911	0.33	0.177	0.627	0.186	0.47	0.0446	0.247	0.156	0.348
CCCCC/C(C=C(C#N)C#N)=C/c1ccccc1	2.48	6.46	6.98	17.4	5.82	22.3	3.12	10.9	6.53	21.8	2.45	7.29	8.18	27.7	3.61	12.3	2.39	6.32	3.03	14.1
O=C1NNC=Nc2ccc(cc2)S(=O)(=O)c2ccc(cc2)N=CNNC1=O	–	> 100	–	> 100	–	> 100	–	> 100	–	> 100	–	> 100	–	> 100	–	> 100	–	> 100	–	> 100
O=C(Nc1ccc(N2CCNCC2)cc1)c1[nH]ncc1Nc1cc(Oc2ccccc2)ncn1	12	39.2	2.24	6.05	1.75	3.33	0.514	1.94	3.19	12.5	1.55	3.19	3	11.3	1.78	4.53	1.91	4.54	2.12	10.5
O=C1/C(=C/c2ccc(Br)cc2)C=C(c2ccccc2)N1CCc1ccccc1	1.08	8.01	0.347	1.22	1.26	3.78	5.34	> 100	1.21	5.03	3.53	71.8	1.71	12	4.73	> 100	75.1	> 100	0.761	10.1
CNC(=O)OCc1c(COC(=O)NC)c(-c2ccc(Cl)c(Cl)c2)n2c1SCC2	–	40	–	50.7	–	13.8	–	26.3	–	> 84.9	–	37.9	3.16	26.9	–	37.5	–	25.4	–	22.2
CC1=C(CCCNS(C)(=O)=O)C2=C(C)C3(CC3)[C@@](C)(O)C(=O)C2=C1	1.38	18.1	0.421	2.33	0.199	0.419	55.5	> 100	1.93	> 100	0.807	2.75	0.259	1.15	1.87	> 100	1.98	> 24	2.32	> 100
O=C(CN1CCOCC1)Nc1ccc(Cn2nnc3c2C(=O)c2nnn(Cc4ccc(NC(=O)CN5CCOCC5)cc4)c2C3=O)cc1	> 100	> 100	1.64	3.46	1.34	2.92	0.366	1.75	0.41	1.57	0.596	1.88	0.361	1.64	0.364	1.53	0.204	0.61	0.305	0.942
O=C(O)CCCCC(CCSCc1ccccc1)SCc1ccccc1 (stereo unspecified)	48.6	> 100	68.6	> 100	27.3	> 100	> 70	> 100	42.9	> 100	55.4	> 100	42.4	> 100	65.3	> 100	46.9	> 100	47.9	> 100
CC1CCC2(C(=O)O)CCC3(C)C(=CCC4C5(C)CC(O)C(O)C(C)(CO)C5C(O)CC43C)C2C1C (stereo unspecified)	–	> 100	–	> 83.7	–	> 64.1	–	> 100	–	56.1	–	> 100	–	35.9	–	> 100	–	47.1	–	45.5
NCC(=O)NS(=O)(=O)OC[C@H]1O[C@@H](n2cnc3c(N)ncnc32)[C@H](O)[C@@H]1O	2.53	9.67	0.368	1.68	2.11	4.2	3.71	24.6	0.378	1.48	1.81	3.61	3.04	7.68	2.92	7.46	2.78	6.95	0.555	1.98
N#Cc1ccc(C#Cc2ccccc2C#CCCCCO)cc1	17.7	36.9	11.7	24	7.05	24.4	17.4	35	15.8	29.9	17.3	31.5	13.6	27.6	46	> 100	23.7	45.6	14.5	27.5
Cn1c(N2NC(=O)C(N=Nc3ccc(S(N)(=O)=O)cc3)C2=O)nc(-c2ccco2)c(C#N)c1=O (stereo unspecified)	> 50	> 50	> 50	> 50	9.65	26.1	9.23	28.6	> 50	> 50	21.9	> 50	> 50	> 50	33.4	> 50	5.04	18.4	42.3	> 50
